Consider one molecule from ChEMBL document CHEMBL1146012, “5-benzylidene-hydantoins as new EGFR inhibitors with antiproliferative activity” (Bioorg Med Chem Lett, 2006).

One may read the IC50 as the concentration needed to halve the response being measured. Low readings indicate inhibition by little substance, high ones a need for much substance.

The assay has as its target Epidermal growth factor receptor (Homo sapiens, UniProt P00533). Briefly: Inhibition of EGFR-mediated polyGAT phosphorylation at 10 uM.

Chain of Epidermal growth factor receptor (P00533 whole entry): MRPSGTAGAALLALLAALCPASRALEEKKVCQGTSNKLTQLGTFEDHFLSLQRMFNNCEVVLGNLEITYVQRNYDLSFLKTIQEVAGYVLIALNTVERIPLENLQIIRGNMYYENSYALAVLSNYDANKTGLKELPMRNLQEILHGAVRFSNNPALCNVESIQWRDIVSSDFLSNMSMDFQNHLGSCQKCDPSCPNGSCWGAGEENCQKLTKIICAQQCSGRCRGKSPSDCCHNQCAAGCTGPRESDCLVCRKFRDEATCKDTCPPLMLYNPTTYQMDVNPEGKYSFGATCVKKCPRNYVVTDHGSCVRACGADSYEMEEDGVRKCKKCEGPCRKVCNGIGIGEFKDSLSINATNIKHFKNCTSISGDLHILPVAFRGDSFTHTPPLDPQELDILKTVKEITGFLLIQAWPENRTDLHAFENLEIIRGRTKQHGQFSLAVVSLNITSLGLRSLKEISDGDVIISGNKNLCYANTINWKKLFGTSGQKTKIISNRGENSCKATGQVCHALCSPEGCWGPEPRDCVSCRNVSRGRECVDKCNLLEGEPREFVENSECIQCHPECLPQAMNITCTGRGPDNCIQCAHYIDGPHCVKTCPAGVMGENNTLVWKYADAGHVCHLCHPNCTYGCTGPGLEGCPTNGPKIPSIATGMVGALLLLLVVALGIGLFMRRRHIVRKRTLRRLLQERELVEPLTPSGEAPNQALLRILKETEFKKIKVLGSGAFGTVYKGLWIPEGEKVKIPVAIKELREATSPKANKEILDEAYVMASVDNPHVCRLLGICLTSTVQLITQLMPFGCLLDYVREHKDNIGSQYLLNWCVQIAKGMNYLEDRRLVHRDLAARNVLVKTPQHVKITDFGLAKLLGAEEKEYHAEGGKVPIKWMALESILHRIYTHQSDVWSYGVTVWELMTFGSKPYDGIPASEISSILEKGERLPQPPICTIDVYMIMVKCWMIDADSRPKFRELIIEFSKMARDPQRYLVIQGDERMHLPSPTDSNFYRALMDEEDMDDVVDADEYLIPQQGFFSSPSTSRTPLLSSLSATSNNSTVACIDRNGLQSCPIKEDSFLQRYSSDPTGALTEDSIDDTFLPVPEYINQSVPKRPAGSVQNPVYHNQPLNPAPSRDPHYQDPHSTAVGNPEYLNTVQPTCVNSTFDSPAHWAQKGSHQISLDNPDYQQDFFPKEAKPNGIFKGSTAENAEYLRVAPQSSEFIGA

`O=C1NC(=O)N(CCc2ccccc2)/C1=C/c1ccc(O)cc1`: the IC50 amounted to 710 nM.
